“Also recorded” adds a separate entry of the source.
How the values were obtained:
[1] = Plasma protein binding, HT-Dialysis (human); format: in vitro ADME; conditions: pH 7.4, dialysis 4 hours, read-out: percent unbound
Method: HT-Dialysis plate (Model HTD 96 b, Cat #1006) and the dialysis membrane (molecular weight cut off 12-14 KDa, Cat #1101) can be purchased from HT Dialysis LLC (Gales Ferry, CT).
The plasma was thawed under running cold tap water and centrifuged at 3220×g for 5 min to remove any clots. The pH value was checked and recorded. Only plasma within range of pH 7.0 to pH 8.0 was used. The dialysis membrane was pretreated according to the manufacturer's instructions. Briefly, the dialysis membrane strips were soaked in ultra-pure water at room temperature for approximately 1 hr. After that, each membrane strip that contained 2 membranes was separated and soaked in ethanol:water (20:80 v:v) for approximately 20 min. The membrane was rinsed and soaked for 20 min in ultra-pure water.
Aliquots of 50 μL loading plasma (matrix) containing compound 1 or warfarin in triplicate were transferred to the appropriate wells of a sample collection plate. The samples were matched with dialysis buffer to obtain a final volume of 100 μL with a volume ratio of plasma (matrix):dialysis buffer (1:1, v:v) in each well. […]
The % Unbound, % Bound, % Recovery and % Remaining were calculated using the following equations: % Unbound=100×F/T % Bound=100−% Unbound % Recovery=100×(F+T)/T0 • F=the compound 1 concentration on the receiver side of the membrane/Correction Factor. […]

[2] = test system: esophageal eosinophil infiltrate; test: Eosinophilic esophagitis model, L2-IL5 transgenic mouse sensitized/locally challenged with oxazolone; format: in vivo; conditions: L2-IL5 mice, OXA, Day 13; for eosinophilia of the esophagus (MBP staining, eosinophils/400× hpf): FIG. 24
Excerpt: From the observation of increased local expression of Interleukin-5 (IL-5) in EoE, transgenic mouse with targeted IL-5 expression to the esophageal squamous epithelia using the Epstein-Barr virus ED-L2 (EBV-ED-L2) gene promoter was generated. […] Even though squamous epithelial-specific IL-5 expression alone induced a significant esophageal eosinophilia encompassing the length of the esophagus, this eosinophilia was not accompanied by the density of histopathological changes such as eosinophilic micro abscesses characteristic of EoE. However, L2-IL5 transgenic mice upon sensitization and subsequent localized topical esophageal challenge with 4-ethoxymethylene-2-phenyl-2-oxazolin-5-one (OXA), a molecule known to induce T-helper cell (Th) type 2 responses, developed key histopathological features, including epithelial hyperplasia and eosinophilic micro abscesses that erupt through the epithelium into the esophageal lumen. Immunohistochemical staining of the eosinophil secondary granule major basic protein (MBP-1) was used to assess the induced esophageal eosinophilia and eosinophil degranulation. […] However, this response was small compared to the induced eosinophilia and associated degranulation that occurred in OXA-treated L2-IL5 transgenic mice (Masterson et al. Gut. 2014, 63, 1-25, which is hereby incorporated by reference in its entirety).
Prior to the OXA sensitization and topical local challenge model of delayed contact hypersensitivity, L2-IL5 transgenic mice were intraperitoneally (IP) injected with compounds or vehicle at 8, 4, and 2 days before sensitization at Day zero (schematic timeline in FIG. 20A). Compounds are prepared by dissolving in dimethyl sulfoxide (DMSO) as master stocks. Fresh working stock compounds in water are prepared for each day of injection and 100 μL of working stock or vehicle is IP injected per mouse. On day zero of the OXA sensitization/local challenge, a 2 cm×2 cm area of abdominal skin of anaesthetized experimental animals was shaved and OXA was applied to the skin surface (150 μl of a 3% (w/v) solution of OXA in 4:1 acetone-olive oil vehicle) to initiate the sensitization phase of the protocol. Sensitized mice then received topical OXA challenges of the esophagus by gavage on protocol Day 5, 8 and 12 after OXA sensitization with 100 μL of a 1% (w/v) solution of OXA in 30% ethanol/olive oil vehicle into the proximal esophagus. In addition, compounds or vehicle were IP injected on Day 5, 8, and 12 after OXA sensitization. All mice were sacrificed, and esophagus collected for histology 24 hours following the last OXA challenge on Day 12 (FIG. 20A). Immunohistochemical staining using a rat monoclonal anti-mouse MBP-1 antibody was conducted to highlight esophageal eosinophil infiltration and localized degranulation. A quantitative assessment of the esophageal eosinophil infiltrate in each group of mice was determined across nine high powered field (hpf) of view, three distal ([…] (Prox)) regions and expressed as group mean data of the eosinophil density (ie, eosinophils/400× hpf) (FIG. 20B). In addition, the eosinophilia is recorded according to the different (epithelial, lamina propia, and muscle) cell layers of the esophagus (FIG. 20C).
of NDM-X in water (20 μL of master stock in […] of water) and 0.231 μg/L of 1 in water (22 μL of master stock in 1078 μL of water) for each injection cohort that are […], respectively. On Day zero of the OXA sensitization/local challenge, a 2 cm×2 cm area of abdominal skin of anaesthetized experimental animals was shaved and OXA was applied to the skin surface to initiate the sensitization phase of the protocol. Sensitized mice then received topical OXA challenges of the esophagus by gavage on protocol Day 5, 8 and 12 after OXA sensitization in the proximal esophagus. […]

[3] = High Dose IP (0.92 mg/kg 1; 0.77 mg/kg NDM-X), FIG. 21
[4] = Low Dose IP (0.014 mg/kg 1; 0.012 mg/kg NDM-X), FIG. 22

| Compound | fraction unbound at 4 h [1] | eosinophilia of the esophagus, dose dependence ([2]; 0.092 mg/kg Mid Dose and 0.92 mg/kg High Dose IP, FIG. 23) | eosinophilia of the esophagus (MBP-1 staining, eosinophils/400× hpf) ([2]; 0.92 mg/kg High Dose IP, FIG. 23) | eosinophilia of the esophagus (MBP-1 staining, eosinophils/400× hpf) [2, 3] | eosinophilia of the esophagus (MBP-1 staining, eosinophils/400× hpf) [2, 4] | eosinophilia of the esophagus (MBP staining, eosinophils/400× hpf) ([2]; 0.012 mg/kg Low Dose IP, listed as NDM-X) | eosinophilia of the esophagus (MBP staining, eosinophils/400× hpf) ([2]; 0.77 mg/kg High Dose IP) |
| --- | --- | --- | --- | --- | --- | --- | --- |
| C[C@H](CC/C=C/C(=O)OC(C)(C)C)O[C@@H]1O[C@@H](C)[C@H](O)C[C@H]1O [Compound 1, tert-butyl (2E,6R)-6-{[(2R,3R,5R,6S)-3,5-dihydroxy-6-methyloxan-2-yl]oxy}hept-2-enoate] | 0.329 | dose-dependently inhibited eosinophilia in the epithelial, lamina propria, and muscle cell layers of the distal, middle, and proximal regions of the esophagus | statistically significant inhibition of the eosinophilic esophagitis observed in epithelial cell layer of distal, middle, and proximal regions of the esophagus; also recorded: statistically significant inhibition of the eosinophilia observed in the lamina propria and muscle cell layers of the middle section of the esophagus; also recorded: statistically significant reduction in eosinophilia observed in all cell layers of the middle and proximal sections as well as the whole esophagus | statistically significant inhibition of eosinophilic esophagitis in the epithelial, lamina propria, and muscle layers of the distal, middle, and proximal cell layers of the esophagus; also recorded: more robust blocking of eosinophil esophagitis in the mouse model than compared to 0.77 mg/kg NDM-X High Dose | statistically significant inhibition of the eosinophilia in all cell layers of the proximal region, epithelial cell layer of the distal region, and lamina propria cell layer of the middle section of the esophagus | – | – |
| C[C@H](CC/C=C/C(=O)O)O[C@@H]1O[C@@H](C)[C@H](O)C[C@H]1O [ascr #7, reference compound] | 0.868 | – | – | statistically significant reduction in the eosinophilia in the lamina propria and muscle cell layers of the distal, middle, and proximal regions of the esophagus | statistically significant inhibition of the eosinophilia in all cell layers of the proximal region, the muscle cell layers in all regions, and the epithelial cell layer of the distal and proximal regions | slightly better than 0.77 mg/kg High Dose of NDM-X in inhibiting the eosinophilia; also recorded: statistically significant inhibition of the eosinophilia observed in the epithelial, lamina propria, and muscle cell layers of the distal, middle, and proximal regions of the esophagus | statistically significant reduction of the eosinophilia in the epithelial and lamina propria cell layers of distal, middle, and proximal regions of the esophagus |

— US11845770B2, “Ascaroside derivatives and methods of use” (California Institute of Technology, priority 2019, dated 2023)
